# Measured values reported in patent US11000033B2, “Ketone or oxime compound, and herbicide” (NISSAN CHEMICAL CORPORATION, priority 2014, dated 2021).
# Legend:
# Type in all cases: in vivo
# [1] = tested on: Echinochloa oryzacola Vasing.; assay: Test Example 2: herbicidal activity, application during weed generation in submerged conditions (symbol A); conditions: Table 23, grade 0-5 by criteria of Test Example 1
# Outline: (§1)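 Scoring of herbicidal effect took place 3 weeks after treatment, using the criteria of the earlier test. Treatment was water-surface application of diluted emulsifiable compound at a set dose. Plants were at one- to two-leaf stage in submerged alluvial soil (4 cm depth), greenhouse 25-30° C.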
# Scirpus juncoides = assay: Test Example 2: herbicidal activity, application during weed generation in submerged conditions (symbol B); conditions: Table 23, grade 0-5 by criteria of Test Example 1
# Outline: as §1
# [2] = tested on: Echinochloa crus-galli var. crus-galli; assay: Test Example 3: herbicidal effect by foliage application, Wagner pot (symbol H); conditions: for H (Echinochloa crus-galli var. crus-galli) herbicidal effect grade: Table 24
# Outline: (§2)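 Foliar spray of a water-diluted emulsion at a predetermined herbicide amount, applied to 14-day-old plants. Seedlings were raised in flooded alluvial soil (0.1–0.5 cm water) at 25–30 °C in a greenhouse. Injury was rated after 3 weeks against fixed criteria.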
# Cyperus difformis = assay: Test Example 3: herbicidal effect by foliage application, Wagner pot (symbol E); conditions: for E herbicidal effect grade: Table 24
# Outline: as §2
# [3] = tested on: Echinochloa crus-galli var. crus-galli; assay: Test Example 4: herbicidal effect by soil treatment (symbol H)
# Source text: (§3) Herbicidal Effect Test by Soil Treatment
# (§4) Sterilized diluvial soil was placed in a plastic box having a length of 21 cm, a width of 13 cm, and a depth of 7 cm. Each of the seeds of Digitaria ciliaris, Setaria viridis, Echinochloa crus-galli var. crus-galli, Avena fatua, Alopecurus myosuroides, Lolium multiflorum Lam., Apera spica-venti, Abutilon theophrasti, Amaranthus retroflexus, Chenopodium album, Stellaria media, Galium spurium, Veronica persica, corn, soybean, rice, wheat, beet, and rapeseed was sowed in a spot-like manner and was covered with the soil of a thickness of about 1.5 cm. Subsequently, the emulsion agent of the compound present invention prepared in accordance with Formulation Example 2 was diluted with water so as to be a predetermined herbicide amount and the diluted emulsion agent was uniformly applied to the surface of the soil with a small-size spray. The plastic box was placed in a greenhouse of 25° C. to 30° C. to grow plant. 3 weeks later from the herbicide application, the effect to each plant was investigated in accordance with the criteria of Test Example 1.
# Alopecurus myosuroides = assay: Test Example 4: herbicidal effect by soil treatment (symbol J)
# Source text: as §3, §4
# Lolium multiflorum Lam. = assay: Test Example 4: herbicidal effect by soil treatment (symbol K)
# Source text: as §3, §4
# Amaranthus retroflexus [4] = assay: Test Example 4: herbicidal effect by soil treatment (symbol N)
# Source text: as §3, §4
# soybean = assay: Test Example 4: effect on crop by soil treatment (symbol d)
# Source text: as §3
# (§5) Sterilized diluvial soil was placed in a plastic box having a length of 21 cm, a width of 13 cm, and a depth of 7 cm. Each of the seeds of Digitaria ciliaris, Setaria viridis, Echinochloa crus-galli var. crus-galli, Avena fatua, Alopecurus myosuroides, Lolium multiflorum Lam., Apera spica-venti, Abutilon theophrasti, Amaranthus retroflexus, Chenopodium album, Stellaria media, Galium spurium, Veronica persica, corn, soybean, rice, wheat, beet, and rapeseed was sowed in a spot-like manner and was covered with the soil of a thickness of about 1.5 cm. […] The plastic box was placed in a greenhouse of 25° C. to 30° C. to grow plant.
# wheat = assay: Test Example 4: effect on crop by soil treatment (symbol e)
# Source text: as §3, §5
# beet [5] = assay: Test Example 4: effect on crop by soil treatment (symbol f)
# Source text: as §3, §5
# Setaria viridis = assay: Test Example 5: herbicidal effect by foliage application, plastic box (symbol G); conditions: 3 weeks after application; for G: Setaria viridis, herbicidal effect grade: 320 g/ha
# Outline: (§6)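 Effect is rated 3 weeks after a foliar spray of water-diluted emulsion concentrate at a predetermined herbicide amount. Plants had grown 14 days in a 25° C. to 30° C. greenhouse from seed in sterilized diluvial soil.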
# Abutilon theophrasti = assay: Test Example 5: herbicidal effect by foliage application, plastic box (symbol M); conditions: 3 weeks after application; for M: Abutilon theophrasti, herbicidal effect grade: 320 g/ha
# Outline: as §6
# Amaranthus retroflexus [6] = assay: Test Example 5: herbicidal effect by foliage application, plastic box (symbol N); conditions: 3 weeks after application; for N: Amaranthus retroflexus, herbicidal effect grade: 320 g/ha
# Outline: as §6
# Chenopodium album = assay: Test Example 5: herbicidal effect by foliage application, plastic box (symbol O); conditions: 320 g/ha, 3 weeks after application
# Outline: as §6
# Stellaria media = assay: Test Example 5: herbicidal effect by foliage application, plastic box (symbol P); conditions: 3 weeks after application; for P: Stellaria media, herbicidal effect grade: 320 g/ha
# Outline: as §6
# Veronica persica = assay: Test Example 5: herbicidal effect by foliage application, plastic box (symbol R); conditions: 3 weeks after application; for R: Veronica persica, herbicidal effect grade: 320 g/ha
# Outline: as §6
# rice plant = assay: Test Example 5: effect on crop by foliage application, plastic box (symbol b); conditions: 3 weeks after application; for b: directly sowed rice plant, effect on crop grade: 320 g/ha
# Outline: (§7)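 Greenhouse test at 25° C. to 30° C. Seeds of crops and weeds were spot-sown in boxes of sterilized diluvial soil under roughly 1.5 cm soil cover, then grown for foliage treatment.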
# beet [7] = assay: Test Example 5: effect on crop by foliage application, plastic box (symbol f); conditions: 3 weeks after application; for f: beet, effect on crop grade: 320 g/ha
# Outline: as §7
# [8] = application herbicide amount 320 g/ha
# [9] = application herbicide amount 192 g/ha
smiles,measurement,setting,value
CON=C(CC1CC(O)=C(c2c(C)cc(C)cc2OC)C1=O)C1CC1 (mixture of isomers) [13-002],"Herbicidal effect grade, A: Echinochloa oryzacola Vasing.",[1]; [8],5 (Herbicidal ratio of 90% or more (almost completely withered))
same,"Herbicidal effect grade, B: Scirpus juncoides",Scirpus juncoides; [8],5 (Herbicidal ratio of 90% or more (almost completely withered))
same,H (Echinochloa crus-galli var. crus-galli) herbicidal effect grade,[2]; [8],5 (Herbicidal ratio of 90% or more (almost completely withered))
same,E herbicidal effect grade,Cyperus difformis; [8],5 (Herbicidal ratio of 90% or more (almost completely withered))
same,"H: Echinochloa crus-galli var. crus-galli, herbicidal effect grade",[3]; [8],5 (Herbicidal ratio of 90% or more (almost completely withered))
same,"J: Alopecurus myosuroides, herbicidal effect grade",Alopecurus myosuroides; [8],4 (Herbicidal ratio of 70% or higher and lower than 90%)
same,"K: Lolium multiflorum Lam., herbicidal effect grade",Lolium multiflorum Lam.; [8],5 (Herbicidal ratio of 90% or more (almost completely withered))
same,"N: Amaranthus retroflexus, herbicidal effect grade",Amaranthus retroflexus [4]; [8],0 (Herbicidal ratio of 5% or lower (almost no effect))
same,"d: soybean, effect on crop grade",soybean; [8],1 (Herbicidal ratio of 5% or higher and lower than 20%)
same,"e: wheat, effect on crop grade",wheat; [8],3 (Herbicidal ratio of 40% or higher and lower than 70%)
same,"f: beet, effect on crop grade",beet [5]; [8],0 (Herbicidal ratio of 5% or lower (almost no effect))
same,"G: Setaria viridis, herbicidal effect grade",Setaria viridis,5 (Herbicidal ratio of 90% or more (almost completely withered))
same,"M: Abutilon theophrasti, herbicidal effect grade",Abutilon theophrasti,2 (Herbicidal ratio of 20% or higher and lower than 40%)
same,"N: Amaranthus retroflexus, herbicidal effect grade",Amaranthus retroflexus [6],0 (Herbicidal ratio of 5% or lower (almost no effect))
same,"O: Chenopodium album, herbicidal effect grade",Chenopodium album,5 (Herbicidal ratio of 90% or more (almost completely withered))
same,"P: Stellaria media, herbicidal effect grade",Stellaria media,3 (Herbicidal ratio of 40% or higher and lower than 70%)
same,"R: Veronica persica, herbicidal effect grade",Veronica persica,4 (Herbicidal ratio of 70% or higher and lower than 90%)
same,"b: directly sowed rice plant, effect on crop grade",rice plant,5 (Herbicidal ratio of 90% or more (almost completely withered))
same,"f: beet, effect on crop grade",beet [7],3 (Herbicidal ratio of 40% or higher and lower than 70%)
C=CCOC1=C(c2c(C)cc(C)cc2C)C(=O)C(CC(C)=NOC)C1 (stereo not shown) [1-007],"Herbicidal effect grade, A: Echinochloa oryzacola Vasing.",[1]; [8],0 (Herbicidal ratio of 5% or lower (almost no effect))
same,"Herbicidal effect grade, B: Scirpus juncoides",Scirpus juncoides; [8],0 (Herbicidal ratio of 5% or lower (almost no effect))
same,"herbicidal effect on H (Echinochloa crus-galli var. crus-galli), grade 0-5",[2]; [8],0 (Herbicidal ratio of 5% or lower (almost no effect))
same,"herbicidal effect on E, grade 0-5",Cyperus difformis; [8],0 (Herbicidal ratio of 5% or lower (almost no effect))
same,H (Echinochloa crus-galli var. crus-galli) herbicidal effect grade,[3]; [8],0 (Herbicidal ratio of 5% or lower (almost no effect))
same,J (Alopecurus myosuroides) herbicidal effect grade,Alopecurus myosuroides; [8],0 (Herbicidal ratio of 5% or lower (almost no effect))
same,K (Lolium multiflorum Lam.) herbicidal effect grade,Lolium multiflorum Lam.; [8],2 (Herbicidal ratio of 20% or higher and lower than 40%)
same,N (Amaranthus retroflexus) herbicidal effect grade,Amaranthus retroflexus [4]; [8],0 (Herbicidal ratio of 5% or lower (almost no effect))
same,d (soybean) effect on crop grade,soybean; [8],0 (Herbicidal ratio of 5% or lower (almost no effect))
same,e (wheat) effect on crop grade,wheat; [8],0 (Herbicidal ratio of 5% or lower (almost no effect))
same,"G: Setaria viridis, herbicidal effect grade",Setaria viridis,0 (Herbicidal ratio of 5% or lower (almost no effect))
same,"M: Abutilon theophrasti, herbicidal effect grade",Abutilon theophrasti,0 (Herbicidal ratio of 5% or lower (almost no effect))
same,"N: Amaranthus retroflexus, herbicidal effect grade",Amaranthus retroflexus [6],0 (Herbicidal ratio of 5% or lower (almost no effect))
same,"O: Chenopodium album, herbicidal effect grade",Chenopodium album,0 (Herbicidal ratio of 5% or lower (almost no effect))
same,"P: Stellaria media, herbicidal effect grade",Stellaria media,0 (Herbicidal ratio of 5% or lower (almost no effect))
same,"R: Veronica persica, herbicidal effect grade",Veronica persica,0 (Herbicidal ratio of 5% or lower (almost no effect))
same,"b: directly sowed rice plant, effect on crop grade",rice plant,0 (Herbicidal ratio of 5% or lower (almost no effect))
same,"f: beet, effect on crop grade",beet [7],0 (Herbicidal ratio of 5% or lower (almost no effect))
CON=C(C)CC1CC(OC(=O)C2CCCO2)=C(c2c(C)cc(C)cc2C)C1=O (stereo not shown) [1-076],"Herbicidal effect grade, A: Echinochloa oryzacola Vasing.",[1]; [9],5 (Herbicidal ratio of 90% or more (almost completely withered))
same,"Herbicidal effect grade, B: Scirpus juncoides",Scirpus juncoides; [9],4 (Herbicidal ratio of 70% or higher and lower than 90%)
same,"herbicidal effect on H (Echinochloa crus-galli var. crus-galli), grade 0-5",[2]; [9],5 (Herbicidal ratio of 90% or more (almost completely withered))
same,"herbicidal effect on E, grade 0-5",Cyperus difformis; [9],5 (Herbicidal ratio of 90% or more (almost completely withered))
same,"H: Echinochloa crus-galli var. crus-galli, herbicidal effect grade",[3]; 192 g/ha,5 (Herbicidal ratio of 90% or more (almost completely withered))
same,"J: Alopecurus myosuroides, herbicidal effect grade",Alopecurus myosuroides; 192 g/ha,4 (Herbicidal ratio of 70% or higher and lower than 90%)
same,"K: Lolium multiflorum Lam., herbicidal effect grade",Lolium multiflorum Lam.; 192 g/ha,5 (Herbicidal ratio of 90% or more (almost completely withered))
same,"N: Amaranthus retroflexus, herbicidal effect grade",Amaranthus retroflexus [4]; 192 g/ha,4 (Herbicidal ratio of 70% or higher and lower than 90%)
same,"d: soybean, effect grade on crop",soybean; 192 g/ha,0 (Herbicidal ratio of 5% or lower (almost no effect))
same,"e: wheat, effect grade on crop",wheat; 192 g/ha,4 (Herbicidal ratio of 70% or higher and lower than 90%)
same,"f: beet, effect grade on crop",beet [5]; 192 g/ha,0 (Herbicidal ratio of 5% or lower (almost no effect))
same,"G: Setaria viridis, herbicidal effect (criteria 0-5)",Setaria viridis; 192 g/ha,5 (Herbicidal ratio of 90% or more (almost completely withered))
same,"M: Abutilon theophrasti, herbicidal effect (criteria 0-5)",Abutilon theophrasti; 192 g/ha,4 (Herbicidal ratio of 70% or higher and lower than 90%)
same,"N: Amaranthus retroflexus, herbicidal effect (criteria 0-5)",Amaranthus retroflexus [6]; 192 g/ha,0 (Herbicidal ratio of 5% or lower (almost no effect))
same,"P: Stellaria media, herbicidal effect (criteria 0-5)",Stellaria media; 192 g/ha,3 (Herbicidal ratio of 40% or higher and lower than 70%)
same,"R: Veronica persica, herbicidal effect (criteria 0-5)",Veronica persica; 192 g/ha,3 (Herbicidal ratio of 40% or higher and lower than 70%)
same,"b: directly sowed rice plant, effect on crop (criteria 0-5)",rice plant; 192 g/ha,5 (Herbicidal ratio of 90% or more (almost completely withered))
same,"f: beet, effect on crop (criteria 0-5)",beet [7]; 192 g/ha,0 (Herbicidal ratio of 5% or lower (almost no effect))
Cc1cc(Br)cc(C)c1C1=C(O)CC(CC(=NOCC(F)(F)F)C2CC2)C1=O (stereo not shown) [9-009],"Herbicidal effect grade, A: Echinochloa oryzacola Vasing.",[1]; [8],2 (Herbicidal ratio of 20% or higher and lower than 40%)
same,"Herbicidal effect grade, B: Scirpus juncoides",Scirpus juncoides; [8],0 (Herbicidal ratio of 5% or lower (almost no effect))
same,H (Echinochloa crus-galli var. crus-galli) herbicidal effect grade,[2]; [8],5 (Herbicidal ratio of 90% or more (almost completely withered))
same,E herbicidal effect grade,Cyperus difformis; [8],4 (Herbicidal ratio of 70% or higher and lower than 90%)
same,"Herbicidal effect grade, H: Echinochloa crus-galli var. crus-galli",[3]; [8],0 (Herbicidal ratio of 5% or lower (almost no effect))
same,"Herbicidal effect grade, K: Lolium multiflorum Lam.",Lolium multiflorum Lam.; [8],5 (Herbicidal ratio of 90% or more (almost completely withered))
same,"Herbicidal effect grade, N: Amaranthus retroflexus",Amaranthus retroflexus [4]; [8],0 (Herbicidal ratio of 5% or lower (almost no effect))
same,"Effect on crop grade, d: soybean",soybean; [8],0 (Herbicidal ratio of 5% or lower (almost no effect))
same,"Effect on crop grade, e: wheat",wheat; [8],0 (Herbicidal ratio of 5% or lower (almost no effect))
same,"Effect on crop grade, f: beet",beet [5]; [8],0 (Herbicidal ratio of 5% or lower (almost no effect))
same,"G: Setaria viridis, herbicidal effect grade",Setaria viridis,5 (Herbicidal ratio of 90% or more (almost completely withered))
same,"M: Abutilon theophrasti, herbicidal effect grade",Abutilon theophrasti,0 (Herbicidal ratio of 5% or lower (almost no effect))
same,"N: Amaranthus retroflexus, herbicidal effect grade",Amaranthus retroflexus [6],0 (Herbicidal ratio of 5% or lower (almost no effect))
same,"O: Chenopodium album, herbicidal effect grade",Chenopodium album,0 (Herbicidal ratio of 5% or lower (almost no effect))
same,"P: Stellaria media, herbicidal effect grade",Stellaria media,0 (Herbicidal ratio of 5% or lower (almost no effect))
same,"R: Veronica persica, herbicidal effect grade",Veronica persica,0 (Herbicidal ratio of 5% or lower (almost no effect))
same,"b: directly sowed rice plant, effect on crop grade",rice plant,5 (Herbicidal ratio of 90% or more (almost completely withered))
same,"f: beet, effect on crop grade",beet [7],0 (Herbicidal ratio of 5% or lower (almost no effect))
